Laboratory results from patent publication US10406146B2, “Heterocyclic compound” (TAKEDA PHARMACEUTICAL COMPANY LIMITED, priority 2015, dated 2019).

Assays:
Format in all cases: biochemical
HDAC1 enzyme = target: T1, HDAC1 enzyme (Homo sapiens, UniProt Q13547); assay: HDAC1 enzyme inhibitory assay (HDAC-Glo I/II Assay kit); conditions: wells without enzyme = 100% inhibition; for inhibition at 1 µM: read-out: HDAC1 inhibitory rate (%) (1 μM)
T1 construct: transducing full length HDAC1 and HDAC6 genes into Sf-9 insect cells; GST; purchased SignalChem; host or cells: Sf-9 insect cells
Procedure: (§1) HDAC1/6 Enzyme Inhibitory Assay
(§2) HDAC1 enzyme and HDAC6 enzyme each prepared by transducing full length HDAC1 and HDAC6 genes into Sf-9 insect cells and purifying by GST affinity column were purchased from SignalChem. Using these enzymes, HDAC1 and/or HDAC6 enzyme inhibitory activities of the compound of the present invention were evaluated. Enzymes were used after preserved at −70° C. HDAC1 or HDAC6 enzyme inhibitory activity of the compound of the present invention was measured using HDAC-Glo™ I/II Assay kit (Promega) according to the following experimental method. The test compound diluted with assay buffer (24 mM Tris-HCl (pH 7.5), 1 mM MgCl2, 0.35 mM KCl, 135 mM NaCl, 0.6 mM Glutathione, 0.01% Tween-20) was added to a 384-well plate by each 2 μL. Then, HDAC1 or HDAC6 enzyme solution diluted with assay buffer was added thereto by each 4 μL, and the plate was incubated at room temperature for 60 min. After incubated, HDAC substrate-Developer solution prepared according to Promega protocol attached to the assay kit was added to the 384-well plate by each 2 μL, and the enzyme reaction was started. After reacting at room temperature for 20 min, luminescence level was measured using plate reader Envision (PerkinElmer). The inhibitory activity of each compound was calculated as a relative activity value when luminescence level in wells without enzyme is considered as 100% inhibition.

HDAC6 enzyme = target: T2, HDAC6 enzyme (Homo sapiens, UniProt Q9UBN7); assay: HDAC6 enzyme inhibitory assay (HDAC-Glo I/II Assay kit); conditions: wells without enzyme = 100% inhibition; for inhibition at 1 µM: read-out: HDAC6 inhibitory rate (%) (1 μM)
T2 construct: transducing full length HDAC1 and HDAC6 genes into Sf-9 insect cells; GST; purchased SignalChem; host or cells: Sf-9 insect cells
T2 sequence (Q9UBN7 1-1215): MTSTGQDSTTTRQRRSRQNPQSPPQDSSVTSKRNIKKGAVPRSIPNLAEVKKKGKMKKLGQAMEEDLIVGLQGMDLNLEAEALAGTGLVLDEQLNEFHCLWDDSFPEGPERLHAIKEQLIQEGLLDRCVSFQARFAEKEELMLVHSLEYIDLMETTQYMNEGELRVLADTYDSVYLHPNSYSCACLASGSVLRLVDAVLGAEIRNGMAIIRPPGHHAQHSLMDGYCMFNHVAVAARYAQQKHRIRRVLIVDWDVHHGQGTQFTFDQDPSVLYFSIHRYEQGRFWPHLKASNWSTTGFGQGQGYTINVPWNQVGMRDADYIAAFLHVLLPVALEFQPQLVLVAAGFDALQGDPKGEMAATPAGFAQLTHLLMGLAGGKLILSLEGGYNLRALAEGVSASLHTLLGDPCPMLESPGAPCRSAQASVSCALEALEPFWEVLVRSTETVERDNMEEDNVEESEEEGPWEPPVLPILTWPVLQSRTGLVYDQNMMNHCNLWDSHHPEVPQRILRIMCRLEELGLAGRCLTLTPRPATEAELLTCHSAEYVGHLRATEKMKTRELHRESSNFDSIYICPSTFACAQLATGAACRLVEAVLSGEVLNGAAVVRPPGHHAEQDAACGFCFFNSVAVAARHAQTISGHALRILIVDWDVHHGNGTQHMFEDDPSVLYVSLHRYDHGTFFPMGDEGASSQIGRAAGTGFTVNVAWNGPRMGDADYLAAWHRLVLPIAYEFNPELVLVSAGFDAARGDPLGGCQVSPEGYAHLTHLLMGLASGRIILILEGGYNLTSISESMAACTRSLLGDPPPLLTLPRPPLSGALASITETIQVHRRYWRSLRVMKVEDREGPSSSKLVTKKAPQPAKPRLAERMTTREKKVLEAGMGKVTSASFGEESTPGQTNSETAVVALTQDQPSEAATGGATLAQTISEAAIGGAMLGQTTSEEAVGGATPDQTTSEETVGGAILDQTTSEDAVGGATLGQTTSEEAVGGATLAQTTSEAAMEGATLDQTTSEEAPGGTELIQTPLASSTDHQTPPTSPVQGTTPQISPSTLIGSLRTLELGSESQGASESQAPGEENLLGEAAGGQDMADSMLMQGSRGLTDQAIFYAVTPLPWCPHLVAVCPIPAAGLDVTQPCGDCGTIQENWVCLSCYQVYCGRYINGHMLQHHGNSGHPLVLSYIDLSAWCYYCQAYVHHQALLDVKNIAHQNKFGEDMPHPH
Procedure: as §1, §2

HDAC9 enzyme = target: T3, HDAC9 enzyme (Homo sapiens, UniProt Q9UKV0); assay: HDAC9 enzyme inhibitory assay (HDAC-Glo class IIa); conditions: wells without enzyme = 100% inhibition; for inhibition at 1 µM: read-out: HDAC9 inhibitory rate (%) (1 μM)
T3 construct: transducing full length HDAC9 gene into Sf-9 insect cells; made in house; host or cells: Sf-9 insect cells
Procedure: HDAC9 Enzyme Inhibitory Assay
Enzyme was prepared by transducing full length HDAC9 gene into Sf-9 insect cells and purifying by Ni-NTA affinity column, and HDAC9 enzyme inhibitory activity was evaluated. Enzymes were used after preserved at −70° C. HDAC9 enzyme inhibitory activity of the test compound was measured using HDAC-Glo class IIa (Promega) according to the following experimental method. The test compound diluted with assay buffer (24 mM Tris-HCl (pH 7.5), 1 mM MgCl2, 0.35 mM KCl, 135 mM NaCl, 0.6 mM Glutathione, 0.01% Tween-20) was added to a 384-well plate by each 2 μL. Then, HDAC9 enzyme solution diluted with assay buffer was added thereto by each 2 μL, and the plate was incubated at room temperature for 60 min. After incubated, HDAC substrate-Developer solution prepared according to Promega protocol was added to the 384-well plate by each 4 μL, and the enzyme reaction was started. After reacting at room temperature for 20 min, luminescence level was measured using plate reader Envision (PerkinElmer). The inhibitory activity of each compound was calculated as a relative activity value when luminescence level in wells without enzyme is considered as 100% inhibition.

T1 sequence (Q13547 whole entry): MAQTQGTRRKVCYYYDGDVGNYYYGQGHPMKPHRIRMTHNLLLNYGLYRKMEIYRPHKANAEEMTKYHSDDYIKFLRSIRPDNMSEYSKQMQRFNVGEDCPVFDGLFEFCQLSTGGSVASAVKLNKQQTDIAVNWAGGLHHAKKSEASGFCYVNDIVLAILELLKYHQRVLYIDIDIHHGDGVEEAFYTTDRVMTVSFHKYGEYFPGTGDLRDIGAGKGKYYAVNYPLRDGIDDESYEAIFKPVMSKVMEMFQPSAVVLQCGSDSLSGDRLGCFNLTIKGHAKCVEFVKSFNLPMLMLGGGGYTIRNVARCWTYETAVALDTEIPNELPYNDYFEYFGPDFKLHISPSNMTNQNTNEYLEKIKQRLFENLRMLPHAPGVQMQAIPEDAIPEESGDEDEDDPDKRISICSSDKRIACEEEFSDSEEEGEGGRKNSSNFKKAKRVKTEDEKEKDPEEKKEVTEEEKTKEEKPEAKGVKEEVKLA
T3 sequence (Q9UKV0 whole entry, species assumed): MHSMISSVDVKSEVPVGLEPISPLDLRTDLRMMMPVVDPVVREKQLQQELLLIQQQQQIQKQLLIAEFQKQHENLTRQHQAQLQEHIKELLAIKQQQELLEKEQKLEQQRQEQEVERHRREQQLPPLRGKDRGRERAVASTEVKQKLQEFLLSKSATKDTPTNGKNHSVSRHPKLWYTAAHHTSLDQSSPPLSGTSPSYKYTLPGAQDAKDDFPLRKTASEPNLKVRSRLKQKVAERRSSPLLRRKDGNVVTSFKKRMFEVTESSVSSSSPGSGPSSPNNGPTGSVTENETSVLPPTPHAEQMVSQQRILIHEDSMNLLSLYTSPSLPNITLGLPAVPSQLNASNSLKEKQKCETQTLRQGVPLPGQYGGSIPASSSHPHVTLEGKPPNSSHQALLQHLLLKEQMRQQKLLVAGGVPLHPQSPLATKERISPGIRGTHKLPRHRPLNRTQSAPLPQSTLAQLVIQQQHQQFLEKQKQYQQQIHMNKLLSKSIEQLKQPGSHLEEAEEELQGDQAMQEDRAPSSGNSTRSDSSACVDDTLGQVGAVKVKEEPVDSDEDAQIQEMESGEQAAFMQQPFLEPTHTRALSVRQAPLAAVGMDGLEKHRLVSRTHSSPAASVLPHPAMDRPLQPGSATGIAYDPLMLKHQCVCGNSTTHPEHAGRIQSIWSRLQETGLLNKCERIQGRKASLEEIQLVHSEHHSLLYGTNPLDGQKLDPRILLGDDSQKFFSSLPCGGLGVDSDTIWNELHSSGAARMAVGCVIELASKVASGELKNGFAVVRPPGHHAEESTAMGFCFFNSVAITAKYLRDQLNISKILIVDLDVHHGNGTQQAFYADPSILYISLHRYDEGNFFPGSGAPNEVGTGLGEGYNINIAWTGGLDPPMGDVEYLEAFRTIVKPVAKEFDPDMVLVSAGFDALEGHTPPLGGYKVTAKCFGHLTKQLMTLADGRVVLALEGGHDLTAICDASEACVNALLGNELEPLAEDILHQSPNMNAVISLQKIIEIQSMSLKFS

SMILES | inhibition at 1 µM (HDAC1 enzyme) | inhibition at 1 µM (HDAC6 enzyme) | inhibition at 1 µM (HDAC9 enzyme) | HDAC1 inhibitory rate (%) (1 μM) (HDAC1 enzyme) | HDAC6 inhibitory rate (%) (1 μM) (HDAC6 enzyme) | HDAC9 inhibitory rate (%) (1 μM) (HDAC9 enzyme)
O=C(NCC1CCCCN1C(=O)Nc1ccc(-c2noc(C(F)(F)F)n2)cc1)c1cc[n+]([O-])cc1 (stereo not drawn) [Example 37, N-((1-((4-(5-(trifluoromethyl)-1,2,4-oxadiazol-3-yl)phenyl)carbamoyl)piperidin-2-yl)methyl)isonicotinamide 1-oxide] | 2% | 2% | 88% | – | – | –
O=C(NCC1CCCCN1C(=O)Nc1ccc(-c2noc(C(F)(F)F)n2)cc1)C1CCOCC1 (stereo not drawn) [Example 51, 2-(((tetrahydro-2H-pyran-4-ylcarbonyl)amino)methyl)-N-(4-(5-(trifluoromethyl)-1,2,4-oxadiazol-3-yl)phenyl)piperidine-1-carboxamide] | 73% | 8% | 97% | – | – | –
N#Cc1cccc(C(=O)NCC2CCCCN2C(=O)Nc2ccc(-c3noc(C(F)(F)F)n3)cc2)c1 (stereo not drawn) [Example 20, 2-(((3-cyanobenzoyl)amino)methyl)-N-(4-(5-(trifluoromethyl)-1,2,4-oxadiazol-3-yl)phenyl)piperidine-1-carboxamide] | 32% | 4% | 95% | – | – | –
Cn1ccnc1C(=O)NCC1CCCCN1C(=O)Nc1ccc(-c2noc(C(F)(F)F)n2)cc1 (stereo not drawn) [Example 39, 2-((((1-methyl-1H-imidazol-2-yl)carbonyl)amino)methyl)-N-(4-(5-(trifluoromethyl)-1,2,4-oxadiazol-3-yl)phenyl)piperidine-1-carboxamide] | 47% | 5% | 90% | – | – | –
O=C(CCc1ccccc1)NCC1CCCCN1C(=O)Nc1ccc(-c2noc(C(F)(F)F)n2)cc1 (stereo not drawn) [Example 47, 2-(((3-phenylpropanoyl)amino)methyl)-N-(4-(5-(trifluoromethyl)-1,2,4-oxadiazol-3-yl)phenyl)piperidine-1-carboxamide] | 68% | 7% | 89% | – | – | –
O=C(NCC1CCCCN1C(=O)Nc1ccc(-c2noc(C(F)(F)F)n2)cc1)c1ccc(-c2ccccc2)cc1 (stereo not drawn) [Example 15, 2-(((biphenyl-4-ylcarbonyl)amino)methyl)-N-(4-(5-(trifluoromethyl)-1,2,4-oxadiazol-3-yl)phenyl)piperidine-1-carboxamide] | -12% | -1% | 40% | – | – | –
O=C(NCC1CCCCN1C(=O)Nc1ccc(-c2noc(C(F)(F)F)n2)cc1)c1ccc(Cl)cc1Cl (stereo not drawn) [Example 31] | – | – | – | −12% | −1% | 38%
Cc1cccc(C(=O)NCC2CCCCN2C(=O)Nc2ccc(-c3noc(C(F)(F)F)n3)cc2)c1 (stereo not drawn) [Example 11, 2-(((3-methylbenzoyl)amino)methyl)-N-(4-(5-(trifluoromethyl)-1,2,4-oxadiazol-3-yl)phenyl)piperidine-1-carboxamide] | 20% | 5% | 90% | – | – | –
COc1ccc(C(=O)NCC2CCCCN2C(=O)Nc2ccc(-c3noc(C(F)(F)F)n3)cc2)cc1 (stereo not drawn) [Example 25, 2-(((4-methoxybenzoyl)amino)methyl)-N-(4-(5-(trifluoromethyl)-1,2,4-oxadiazol-3-yl)phenyl)piperidine-1-carboxamide] | 12% | 2% | 95% | – | – | –
O=C(NCC1CCCCN1C(=O)Nc1ccc(-c2noc(C(F)(F)F)n2)cc1)C1CCCCC1 (stereo not drawn) [Example 50] | – | – | – | 79% | 7% | 95%
CC(=O)N1CCC(C(=O)NCC2CCCCN2C(=O)Nc2ccc(-c3noc(C(F)(F)F)n3)cc2)CC1 (stereo not drawn) [Example 53, 2-((((1-acettylpiperidin-4-yl)carbonyl)amino)methyl)-N-(4-(5-(trifluoromethyl)-1,2,4-oxadiazol-3-yl)phenyl)piperidine-1-carboxamide] | – | – | – | 32% | 7% | 94%
O=C(NCC1CCCCN1C(=O)Nc1ccc(-c2noc(C(F)(F)F)n2)cc1)c1cc2ccccc2o1 (stereo not drawn) [Example 44, 2-(((1-benzofuran-2-ylcarbonyl)amino)methyl)-N-(4-(5-(trifluoromethyl)-1,2,4-oxadiazol-3-yl)phenyl)piperidine-1-carboxamide] | 3% | 1% | 79% | – | – | –
O=C(NCC1CCCCN1C(=O)Nc1ccc(-c2noc(C(F)(F)F)n2)cc1)c1cccc(Cl)c1Cl (stereo not drawn) [Example 30, 2-(((2,3-dichlorobenzoyl)amino)methyl)-N-(4-(5-(trifluoromethyl)-1,2,4-oxadiazol-3-yl)phenyl)piperidine-1-carboxamide] | 4% | 1% | 70% | – | – | –
O=C(NCC1CCCCN1C(=O)Nc1ccc(-c2noc(C(F)(F)F)n2)cc1)c1ccccn1 (stereo not drawn) [Example 34, N-((1-((4-(5-(trifluoromethyl)-1,2,4-oxadiazol-3-yl)phenyl)carbamoyl)piperidin-2-yl)methyl)pyridine-2-carboxamide] | 28% | 4% | 84% | – | – | –
O=C(NCC1CCCCN1C(=O)Nc1ccc(-c2noc(C(F)(F)F)n2)cc1)c1ccc2nccn2c1 (stereo not drawn) [Example 45, N-((1-((4-(5-(trifluoromethyl)-1,2,4-oxadiazol-3-yl)phenyl)carbamoyl)piperidin-2-yl)methyl)imidazo[1,2-a]pyridine-6-carboxamide] | 20% | 3% | 93% | – | – | –
N#Cc1ccc(C(=O)NCC2CCCCN2C(=O)Nc2ccc(-c3noc(C(F)(F)F)n3)cc2)cc1 (stereo not drawn) [Example 21, 2-(((4-cyanobenzoyl)amino)methyl)-N-(4-(5-(trifluoromethyl)-1,2,4-oxadiazol-3-yl)phenyl)piperidine-1-carboxamide] | 28% | 0% | 94% | – | – | –
